What all share (assay type): in vivo
One test concerns C57BL/6J mice. The experiment in a line: The lipid-lowering effect in C57BL/6J mice (high-fat diet). As to conditions: HFD C57BL/6J mice, after 21 days, six mice per group. The protocol:
1. The Lipid-Lowering Effect in C57BL/6J Mice
8-week C57BL/6J mice are divided into standard diet (STD) group and the high-fat diet (HFD) group. In the HFD group, the Simvastatin (5 mg/kg), Sildenafil-Atorvastatinic acid complex salt, Sildenafil-Rosuvastatinic acid complex salt, Sildenafil-Simvastatinic acid complex salt (2.5 mg/kg) are separately administered orally. After 21 days, the amounts (mg/d1) of the triglyceride (TG), the total cholesterol (Tot.-C), the high density lipoprotein cholesterol (HDL-C), and the low density lipoprotein cholesterol (LDL-C) of six mice for each group are measured as shown in Tables 2.

The test system of test [1] is male Wistar rats treated with MCT. Briefly: Monocrotaline (MCT)-induced pulmonary arterial hypertension in rats, pulmonary artery blood pressure. As to conditions: for PABP: MCT (60 mg, intracutaneously)-treated male Wistar rats, 2.5 mg/kg/day p.o., MCT alone 25 ± 2.3, control 11 ± 1.4; for effect on pulmonary artery blood pressure (PABP), in words: MCT-treated male Wistar rats, 2.5 mg/kg orally every day. From the text: 2. The Monocrotaline (MCT)-Treated Rats Show the Decreased Pulmonary Aterial Hypertension
Pulmonary aterial hypertension in MCT-treated rats is caused on day 21 after the intracutaneously injection.

The next test has as its system TGF-β. Briefly: Bleomycin (BM)-induced lung fibrosis in mice, TGF-β expression in tracheal irrigation solution by EIA. As to conditions: 60 mg/kg BM inhalation, *P < 0.05 vs control group. The protocol:
3. Sildenafil-Simvastatinic Acid Complex Salts Inhibit the Lung Fibrosis in Mice Induced by Bleomycin (BM) Mediated Via TGF-β Expression in Lung The increased amount of the synthetic collagen and the generation of the macrophage in alveolus may facilitate the formulation of transforming growth factor beta (TGF-β), and the expression of TGF-β is looked as a biomarker of the lung fibrosis. The simvastatin (5 mg/kg) and Sildenafil-Simvastatinic acid complex salts (2.5 mg/kg) are orally administered to the mice for inhibiting the lung fibrosis induced by TGF-β expression in tracheal irrigation solution that resulted from 60 mg/kg BM inhalation (Table 4). The state of the TGF-β expression in the irrigation solution is measured by the enzyme immunoassay (EIA).

In the case of “Sildenafil-Simvastatinic acid complex salt”, in the test on C57BL/6J mice (2.5 mg/kg orally), the HDL-C was 102.4 ± 2.3 mg/d1, the LDL-C is listed as 17.3 ± 1.4 mg/d1, the TG is on record as 81.2 ± 4.4 mg/d1 and the Tot.-C is given as 129.7 ± 1.4 mg/d1. For the same compound, in test [1], the PABP is on record as 12 ± 1.5 mmHg and the “effect on pulmonary artery blood pressure (PABP), in words” value is “decreasing the pulmonary artery blood pressure”. Also, the “Changed amount of the lung TGF-β” value with TGF-β (2.5 mg/kg orally) was found to be 43 ± 1.8%*.

As for `CCC(C)(C)C(=O)O[C@H]1C[C@@H](C)C=C2C=C[C@H](C)[C@H](CC[C@@H]3C[C@@H](O)CC(=O)O3)[C@H]21` [Simvastatin, reference compound], in the test with C57BL/6J mice (5 mg/kg orally), the HDL-C was 103.18 ± 2.5 mg/d1, the LDL-C came to 15.3 ± 1.3 mg/d1, the TG worked out at 82.67 ± 6.3 mg/d1 and the Tot.-C was 133.67 ± 4.3 mg/d1. Further, the “Changed amount of the lung TGF-β” value in the test on TGF-β (5 mg/kg orally) was determined as 40 ± 4.3%*.

In the test with C57BL/6J mice (2.5 mg/kg orally), “Sildenafil-Rosuvastatinic acid complex salt” registered an HDL-C of 103.4 ± 1.5 mg/d1, an LDL-C of 15.2 ± 1.7 mg/d1, a TG of 83.2 ± 5.3 mg/d1 and a Tot.-C of 131.7 ± 1.6 mg/d1.

With “Sildenafil-Atorvastatinic acid complex salt”, in the test on C57BL/6J mice (2.5 mg/kg orally), the HDL-C is 97.6 ± 2.8 mg/d1, the LDL-C is listed as 16.8 ± 1.8 mg/d1, the TG was 79.2 ± 4.6 mg/d1 and the Tot.-C is reported as 130.7 ± 1.7 mg/d1.

As for Sildenafil-γ-Polyglutamate complex, in test [1], the PABP worked out at 11 ± 0.8 mmHg and the “effect on pulmonary artery blood pressure (PABP), in words” value was “decreasing the pulmonary artery blood pressure”.
